ChEMBL document CHEMBL5729726, “Tricyclic compounds as histone methyltransferase inhibitors” (2023)

Molecular target: T1, Histone-lysine N-methyltransferase EHMT2 (Homo sapiens, UniProt Q96KQ7)
T1 sequence (Q96KQ7 whole entry): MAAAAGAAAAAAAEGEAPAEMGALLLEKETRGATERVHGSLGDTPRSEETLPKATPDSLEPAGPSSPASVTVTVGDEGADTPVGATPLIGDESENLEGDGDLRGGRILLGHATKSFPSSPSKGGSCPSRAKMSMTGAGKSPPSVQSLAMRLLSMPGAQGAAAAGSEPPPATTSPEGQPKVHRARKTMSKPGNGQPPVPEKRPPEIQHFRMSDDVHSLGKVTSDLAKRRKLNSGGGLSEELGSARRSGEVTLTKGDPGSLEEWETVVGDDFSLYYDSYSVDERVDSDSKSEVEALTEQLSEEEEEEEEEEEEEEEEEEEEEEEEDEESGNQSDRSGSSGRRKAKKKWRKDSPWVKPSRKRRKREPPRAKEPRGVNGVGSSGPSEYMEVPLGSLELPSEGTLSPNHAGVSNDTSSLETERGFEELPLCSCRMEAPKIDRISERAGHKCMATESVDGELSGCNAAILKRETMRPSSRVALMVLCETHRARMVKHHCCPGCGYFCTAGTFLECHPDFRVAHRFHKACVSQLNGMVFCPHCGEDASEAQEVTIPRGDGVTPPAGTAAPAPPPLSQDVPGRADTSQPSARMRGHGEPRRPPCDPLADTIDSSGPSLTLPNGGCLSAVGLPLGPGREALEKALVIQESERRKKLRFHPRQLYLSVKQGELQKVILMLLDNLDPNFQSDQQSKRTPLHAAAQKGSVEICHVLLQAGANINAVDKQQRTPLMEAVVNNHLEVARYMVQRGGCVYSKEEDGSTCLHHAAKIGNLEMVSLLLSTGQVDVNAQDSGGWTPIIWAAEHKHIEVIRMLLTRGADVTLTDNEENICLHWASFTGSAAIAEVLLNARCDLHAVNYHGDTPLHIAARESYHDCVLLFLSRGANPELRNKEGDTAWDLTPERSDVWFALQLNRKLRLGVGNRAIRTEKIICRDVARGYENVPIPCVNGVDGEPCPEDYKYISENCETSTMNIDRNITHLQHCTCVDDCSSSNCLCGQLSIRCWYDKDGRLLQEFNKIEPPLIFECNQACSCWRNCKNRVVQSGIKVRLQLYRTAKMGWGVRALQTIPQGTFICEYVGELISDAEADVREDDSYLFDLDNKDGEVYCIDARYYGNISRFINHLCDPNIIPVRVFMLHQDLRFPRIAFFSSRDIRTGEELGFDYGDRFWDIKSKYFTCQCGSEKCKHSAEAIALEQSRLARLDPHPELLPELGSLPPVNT
Assay: Enzymatic Activity Assay: For the assay, the following buffer was used to set up reactions: 50 mM Tris-HCl pH9, 50 mM NaCl, 0.01% Tween-20 and 1 mM DTT (added fresh prior to starting the reactions). The assay is set up by adding a final concentration of 0.15 nM G9a, 15 uM S-adenosyl-methionine and 100 nM biotinylated histone 3 peptide (1-21). The reaction is incubated at rt for 1 hour and subsequently quenched with the acceptor beads (anti-H3k9me2 AlphaLISA acceptor beads, Perkin Elmer #AL117) at a final concentration of 20 ug/mL. The acceptor beads are incubated for 1 hour. After 1 hour, the donor beads are added at a final concentration of 20 ug/mL (Alpha Streptavidin donor beads, PerkinElmer #6760002). Donor beads are incubated for 0.5 hours. Both donor and acceptor beads are resuspended in AlphaLISA 5X Epigenetics Buffer 1 Kit (PerkinElmer #AL008) prior to addition to the reaction. All manipulations and incubations with the donor and acceptor beads are done in subdued light. Signal is detected in an EnVision plate reader in Alpha mode.

| Compound | IC50 |
| --- | --- |
| COc1cc2nc3c(c(NC4CCN(C5CCOC5)CC4)c2cc1OC)CCC3 (centres undefined) | 617 nM |
| COc1cc2nc3c(c(NCC4CN(c5ccccc5F)C4)c2cc1OC)CCC3 | 1740 nM |
| COc1cc2nc3c(c(NC4CCN(C(C)C)CC4)c2cc1OC)CCCC3 | ≥ 10000 nM |
| COc1cc2nc3c(c(NC4CC(C)(C)NC(C)(C)C4)c2cc1OC)CCC3 | 53.7 nM |
